The test system of data set [1] is Hepatitis C virus. Description: Ratio of IC50 for HCV 1b with NS3-4 R155K mutation to IC50 for wild type HCV 1b. The data set is classed as functional, Hepacivirus hominis, genotype 1b.
The subject of data set [2] is Hepatitis C virus. Kind of data set: Ratio of IC50 for HCV 1b with NS3-4A R155T mutation to IC50 for wild type HCV 1b. Type of data set: functional, Hepacivirus hominis, genotype 1b.
The subject of data set [3] is Hepatitis C virus. Kind of data set: Ratio of IC50 for HCV 1b with NS3-4A R155G mutation to IC50 for wild type HCV 1b. The data set is classed as functional, Hepacivirus hominis, genotype 1b.
Data set [4] has as its system Hepatitis C virus. Kind of data set: Antiviral activity against wild type HCV 1b Con1 in human Huh7 cells after 48 hrs by replicon cell assay. To be noted: genotype 1b Con 1, Huh-7, 48 h. The data set is classed as functional, organism-based, Hepacivirus hominis.
Data set [5] deals with Hepatitis C virus. Kind of data set: Antiviral activity against HCV 1b Con1 with NS3-4A R155K mutation in human Huh7 cells after 48 hrs by replicon cell assay. Type of data set: functional, organism-based, Hepacivirus hominis. To be noted: genotype 1b Con 1, Huh-7, 48 h. A general note: A replicon is a self-replicating genome or part of one, used to study replication in cells.

Data set [6] deals with Hepatitis C virus. Description: (§1) Antiviral activity against HCV 1b with NS3-4A R155T mutation in human Huh7 cells after 48 hrs by replicon cell assay. The data set is classed as functional, organism-based, Hepacivirus hominis. To be noted: genotype 1b, Huh-7, 48 h.
Data set [7] deals with Hepatitis C virus. Kind of data set: Antiviral activity against HCV 1b with NS3-4A R155M mutation in human Huh7 cells after 48 hrs by replicon cell assay. Type of data set: functional, organism-based, Hepacivirus hominis. The note with it: genotype 1b, Huh-7, 48 h.
For data set [8], the system named is Hepatitis C virus. Kind of data set: Antiviral activity against wild type HCV in human Huh7.5 cells assessed as replication capacity by luciferase assay. The data set is classed as functional, Hepacivirus hominis, Huh-7.
Data set [9] concerns Hepatitis C virus. Description: Antiviral activity against HCV with NS3-4A R155K mutation in human Huh7.5 cells after assessed as replication capacity by luciferase assay relative to wild type HCV. Type of data set: functional, Hepacivirus hominis, Huh-7.
Data set [10] has as its system Hepatitis C virus. Description: Antiviral activity against HCV with NS3-4A R155T mutation in human Huh7.5 cells assessed as replication capacity by luciferase assay relative to wild type HCV. The data set is classed as functional, Hepacivirus hominis, Huh-7.
Data set [11] relates to Hepatitis C virus. Kind of data set: Antiviral activity against HCV with NS3-4A R155S mutation in human Huh7.5 cells assessed as replication capacity by luciferase assay relative to wild type HCV. The data set is classed as functional, Hepacivirus hominis, Huh-7.
For data set [12], the system named is Hepatitis C virus. Kind of data set: Antiviral activity against HCV with NS3-4A R155I mutation in human Huh7.5 cells assessed as replication capacity by luciferase assay relative to wild type HCV. Type of data set: functional, Hepacivirus hominis, Huh-7.
Data set [13] deals with Hepatitis C virus. Description: Antiviral activity against HCV with NS3-4A R155M mutation in human Huh7.5 cells assessed as replication capacity by luciferase assay relative to wild type HCV. The data set is classed as functional, Hepacivirus hominis, Huh-7.
Data set [14] deals with Hepatitis C virus. Description: Antiviral activity against HCV with NS3-4A R155G mutation in human Huh7.5 cells assessed as replication capacity by luciferase assay relative to wild type HCV. Type of data set: functional, Hepacivirus hominis, Huh-7.
Data set [15] relates to Hepatitis C virus. Kind of data set: Ratio of IC50 for HCV 1b with NS3-4A R155I mutation to IC50 for wild type HCV 1b. The data set is classed as functional, Hepacivirus hominis, genotype 1b.
Data set [16] has as its system Hepatitis C virus. Kind of data set: Antiviral activity against HCV 1b with NS3-4A R155G mutation in human Huh7 cells after 48 hrs by replicon cell assay. Type of data set: functional, organism-based, Hepacivirus hominis. To be noted: genotype 1b, Huh-7, 48 h.
Data set [17] concerns Hepatitis C virus. Description: Ratio of IC50 for HCV 1b with NS3-4A R155S mutation to IC50 for wild type HCV 1b. The data set is classed as functional, Hepacivirus hominis, genotype 1b.
Data set [18] has as its system Hepatitis C virus. Kind of data set: Ratio of IC50 for HCV 1b with NS3-4A R155M mutation to IC50 for wild type HCV 1b. The data set is classed as functional, Hepacivirus hominis, genotype 1b.
Data set [19] is described as follows: Inhibition of wild type HCV 1a NS3-4A protease after 60 mins.
Data set [20] addresses NS3 protease (Hepacivirus C, UniProt C1KIQ2, R155K). Description: Inhibition of HCV 1a NS3-4A R155K mutant protease after 60 mins. More on the design: species or system Hepatitis C virus subtype 1a.
Data set [21] addresses NS3 protease (Hepacivirus C, UniProt C1KIQ2, R155T). Kind of data set: Inhibition of HCV 1a NS3-4A R155T mutant protease after 60 mins. Details: species or system Hepatitis C virus subtype 1a.
Data set [22] has as its target NS3 protease (Hepacivirus C, UniProt C1KIQ2, R155S). Description: Inhibition of HCV 1a NS3-4A protease R155S mutant after 60 mins. More on the design: species or system Hepatitis C virus subtype 1a.
The target of data set [23] is NS3 protease (Hepacivirus C, UniProt C1KIQ2, R155I). Kind of data set: Inhibition of HCV 1a NS3-4A R155I mutant protease after 60 mins. More on the design: species or system Hepatitis C virus subtype 1a.
For data set [24], the system named is Hepatitis C virus. The description is as §1. To be noted: genotype 1b, Huh-7, 48 h. Type of data set: functional, organism-based, Hepacivirus hominis. This is another data set of the same source.
The test system of data set [25] is Hepatitis C virus. Kind of data set: Antiviral activity against HCV 1b with NS3-4A R155I mutation in human Huh7 cells after 48 hrs by replicon cell assay. Type of data set: functional, organism-based, Hepacivirus hominis. To be noted: genotype 1b, Huh-7, 48 h.
The test system of data set [26] is Hepatitis C virus subtype 1a.
Description: Activity of wild type HCV 1a NS3-4A protease
Substrate in data set [27]: CCC[C@H](NC(=O)[C@@H]1[C@H]2CCC[C@H]2CN1C(=O)[C@@H](NC(=O)[C@@H](NC(=O)c1cnccn1)C1CCCCC1)C(C)(C)C)C(=O)C(=O)NC1CC1
The note with it: Hepatitis C virus subtype 1a.

Substrate in data set [28]: CCC[C@H](NC(=O)[C@@H]1[C@H]2CCC[C@H]2CN1C(=O)[C@@H](NC(=O)[C@@H](NC(=O)c1cnccn1)C1CCCCC1)C(C)(C)C)C(=O)C(=O)NC1CC1
To be noted: Hepatitis C virus subtype 1a. The source holds these as a separate data set.

Substrate in data set [29]: CCC[C@H](NC(=O)[C@@H]1[C@H]2CCC[C@H]2CN1C(=O)[C@@H](NC(=O)[C@@H](NC(=O)c1cnccn1)C1CCCCC1)C(C)(C)C)C(=O)C(=O)NC1CC1
To be noted: Hepatitis C virus subtype 1a. This is another data set of the same source.

Chain of NS3 protease (Hepacivirus C, UniProt C1KIQ2, R155I) (C1KIQ2 entry or part of it R155I): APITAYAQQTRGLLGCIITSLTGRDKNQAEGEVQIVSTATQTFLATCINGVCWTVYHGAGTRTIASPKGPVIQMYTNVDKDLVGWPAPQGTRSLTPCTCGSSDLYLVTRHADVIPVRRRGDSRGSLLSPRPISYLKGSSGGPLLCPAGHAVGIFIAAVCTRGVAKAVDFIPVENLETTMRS

For `NC(=O)c1ncn([C@@H]2O[C@H](CO)[C@@H](O)[C@H]2O)n1` [RIBAVIRIN], the “fold change (FC)” value in the data set with Hepatitis C virus [1] was 0.6; in the data set on Hepatitis C virus [2] it was 0.6; in the data set with Hepatitis C virus [3], 0.7. Moreover, the IC50 (commonly the concentration at which inhibition is half-maximal) in the data set on Hepatitis C virus [4] came out at 58 µM; in the data set on Hepatitis C virus [5] it was 37 µM; with Hepatitis C virus [6] it was 32 µM; in the data set with Hepatitis C virus [7] it was 39 µM.
As for `CCC[C@H](NC(=O)[C@@H]1[C@H]2CCC[C@H]2CN1C(=O)[C@@H](NC(=O)[C@@H](NC(=O)c1cnccn1)C1CCCCC1)C(C)(C)C)C(=O)C(=O)NC1CC1` [TELAPREVIR], the Activity came to 100% in the data set with Hepatitis C virus [8]; 80% in the data set with Hepatitis C virus [9]; 41% in the data set with Hepatitis C virus [10]; 45% in the data set with Hepatitis C virus [11]; 19% with Hepatitis C virus [12]; 18% with Hepatitis C virus [13]. Further, in the data set with Hepatitis C virus [14], the Activity was found to be 10%. Further, the “fold change (FC)” value was 24 in the data set with Hepatitis C virus [15]; 7.4 in the data set on Hepatitis C virus [1]; 19.8 with Hepatitis C virus [2]; 4.1 in the data set with Hepatitis C virus [17]; 5.5 with Hepatitis C virus [18]; 7.4 in the data set with Hepatitis C virus [3]. The IC50 in the data set on Hepatitis C virus [16] was 3.6 µM; in [19], 0.05 µM; against NS3 protease [20] it was 0.51 µM; at NS3 protease [21], 0.49 µM; on NS3 protease [22], 1.15 µM; at NS3 protease [23], 0.88 µM. Further, the IC50 worked out at 0.49 µM in the data set with Hepatitis C virus [4]; 3.6 µM in the data set with Hepatitis C virus [5]; 9.6 µM with Hepatitis C virus [6]; 2 µM with Hepatitis C virus [24]; 11.7 µM in the data set on Hepatitis C virus [25]; 2.7 µM in the data set on Hepatitis C virus [7]. For the same molecule, in [26], the Michaelis constant (Km) (as a rule, the substrate concentration at which the rate is half of its maximum) was determined as 53 µM.

B1: NS3 protease (Hepacivirus C), C1KIQ2 R155K (protein)
chain: APITAYAQQTRGLLGCIITSLTGRDKNQAEGEVQIVSTATQTFLATCINGVCWTVYHGAGTRTIASPKGPVIQMYTNVDKDLVGWPAPQGTRSLTPCTCGSSDLYLVTRHADVIPVRRRGDSRGSLLSPRPISYLKGSSGGPLLCPAGHAVGIFKAAVCTRGVAKAVDFIPVENLETTMRS
Take B1: the Km in data set [27] turned out to be 168 µM.

B2: NS3 protease (Hepacivirus C), C1KIQ2 R155T (protein)
chain: APITAYAQQTRGLLGCIITSLTGRDKNQAEGEVQIVSTATQTFLATCINGVCWTVYHGAGTRTIASPKGPVIQMYTNVDKDLVGWPAPQGTRSLTPCTCGSSDLYLVTRHADVIPVRRRGDSRGSLLSPRPISYLKGSSGGPLLCPAGHAVGIFTAAVCTRGVAKAVDFIPVENLETTMRS
For B2, the Km in data set [28] is 68 µM.

B3: NS3 protease (Hepacivirus C), C1KIQ2 R155S (protein)
chain: APITAYAQQTRGLLGCIITSLTGRDKNQAEGEVQIVSTATQTFLATCINGVCWTVYHGAGTRTIASPKGPVIQMYTNVDKDLVGWPAPQGTRSLTPCTCGSSDLYLVTRHADVIPVRRRGDSRGSLLSPRPISYLKGSSGGPLLCPAGHAVGIFSAAVCTRGVAKAVDFIPVENLETTMRS
As for B3, in data set [29], the Km was found to be 552 µM.
